Results as given in ChEMBL document CHEMBL5126540, “Resveratrol-based compounds and neurodegeneration: Recent insight in multitarget therapy” (Eur J Med Chem, 2022).
Blank lines part the entries; values can stand above or below the molecule they belong to.

Key:
C2C12 = assay: Cytotoxicity against mouse C2C12 cells incubated for 24 to 48 hrs by MTT assay; assay type: toxicity, cell-based; details: time 24-48 hrs
Cholinesterase [1] = target: T1, Cholinesterase (Homo sapiens, UniProt P06276)
Description: Inhibition of BChE (unknown origin) incubated for 30 mins by Ellman's method

Acetylcholinesterase [2] = target: T2, Acetylcholinesterase (Homo sapiens, UniProt P22303); assay: Inhibition of AChE (unknown origin) incubated for 30 mins by Ellman's method
T2 sequence (P22303 whole entry): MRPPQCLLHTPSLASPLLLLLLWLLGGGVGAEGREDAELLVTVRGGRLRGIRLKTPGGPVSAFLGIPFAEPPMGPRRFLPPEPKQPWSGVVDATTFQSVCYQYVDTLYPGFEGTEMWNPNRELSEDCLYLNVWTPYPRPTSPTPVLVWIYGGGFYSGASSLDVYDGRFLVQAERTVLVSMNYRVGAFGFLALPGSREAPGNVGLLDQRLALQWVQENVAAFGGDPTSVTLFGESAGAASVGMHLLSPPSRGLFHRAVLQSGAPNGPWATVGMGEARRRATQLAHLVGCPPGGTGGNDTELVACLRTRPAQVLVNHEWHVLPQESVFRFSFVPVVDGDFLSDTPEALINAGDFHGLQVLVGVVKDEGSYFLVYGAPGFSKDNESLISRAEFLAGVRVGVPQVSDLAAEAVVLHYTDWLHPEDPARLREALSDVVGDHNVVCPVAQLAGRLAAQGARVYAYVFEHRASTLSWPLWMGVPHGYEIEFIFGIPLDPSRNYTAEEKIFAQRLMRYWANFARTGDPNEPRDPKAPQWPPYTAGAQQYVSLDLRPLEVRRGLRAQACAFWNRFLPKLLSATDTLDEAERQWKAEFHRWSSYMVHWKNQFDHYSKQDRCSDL

[3] = target: T3, Polyunsaturated fatty acid 5-lipoxygenase (Homo sapiens, UniProt P09917); assay: Inhibition of human LOX-5 in presence of LOX substrate solution incubated for 10 mins by Varioskan-flash microplate spectrophotometer reader
T3 sequence (P09917 whole entry): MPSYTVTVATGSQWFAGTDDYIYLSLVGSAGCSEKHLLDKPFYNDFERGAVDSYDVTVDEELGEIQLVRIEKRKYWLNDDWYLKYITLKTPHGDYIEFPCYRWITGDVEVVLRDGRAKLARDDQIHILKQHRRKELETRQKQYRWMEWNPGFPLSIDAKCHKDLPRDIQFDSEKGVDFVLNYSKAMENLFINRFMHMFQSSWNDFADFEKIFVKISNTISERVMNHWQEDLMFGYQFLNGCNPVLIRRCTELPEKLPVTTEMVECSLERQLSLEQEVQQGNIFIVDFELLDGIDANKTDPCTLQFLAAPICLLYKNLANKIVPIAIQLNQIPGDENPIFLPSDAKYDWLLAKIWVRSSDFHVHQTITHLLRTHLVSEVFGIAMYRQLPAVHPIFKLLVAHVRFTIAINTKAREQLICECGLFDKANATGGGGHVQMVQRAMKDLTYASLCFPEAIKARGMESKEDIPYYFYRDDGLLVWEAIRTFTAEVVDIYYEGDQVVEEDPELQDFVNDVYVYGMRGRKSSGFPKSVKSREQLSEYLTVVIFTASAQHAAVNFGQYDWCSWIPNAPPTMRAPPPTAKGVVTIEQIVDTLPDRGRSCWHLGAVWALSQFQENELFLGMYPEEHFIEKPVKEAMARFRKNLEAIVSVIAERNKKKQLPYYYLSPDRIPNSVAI

PC-12 = assay: Neuroprotective activity against H2o2-induced rat PC-12 cells assessed as cell viability preincubated for 2 hrs followed by H2O2 treatment measured after 24 hrs by MTT assay; assay type: functional; details: time 26 hrs
[4] = target: T4, Amyloid-beta precursor protein (Homo sapiens, UniProt P05067); assay: Inhibition of Amyloid beta (1 to 42) (unknown origin) self aggregation at 25 uM incubated for 24 hrs by ThT-based fluorescence assay relative to control
T4 sequence (P05067 whole entry): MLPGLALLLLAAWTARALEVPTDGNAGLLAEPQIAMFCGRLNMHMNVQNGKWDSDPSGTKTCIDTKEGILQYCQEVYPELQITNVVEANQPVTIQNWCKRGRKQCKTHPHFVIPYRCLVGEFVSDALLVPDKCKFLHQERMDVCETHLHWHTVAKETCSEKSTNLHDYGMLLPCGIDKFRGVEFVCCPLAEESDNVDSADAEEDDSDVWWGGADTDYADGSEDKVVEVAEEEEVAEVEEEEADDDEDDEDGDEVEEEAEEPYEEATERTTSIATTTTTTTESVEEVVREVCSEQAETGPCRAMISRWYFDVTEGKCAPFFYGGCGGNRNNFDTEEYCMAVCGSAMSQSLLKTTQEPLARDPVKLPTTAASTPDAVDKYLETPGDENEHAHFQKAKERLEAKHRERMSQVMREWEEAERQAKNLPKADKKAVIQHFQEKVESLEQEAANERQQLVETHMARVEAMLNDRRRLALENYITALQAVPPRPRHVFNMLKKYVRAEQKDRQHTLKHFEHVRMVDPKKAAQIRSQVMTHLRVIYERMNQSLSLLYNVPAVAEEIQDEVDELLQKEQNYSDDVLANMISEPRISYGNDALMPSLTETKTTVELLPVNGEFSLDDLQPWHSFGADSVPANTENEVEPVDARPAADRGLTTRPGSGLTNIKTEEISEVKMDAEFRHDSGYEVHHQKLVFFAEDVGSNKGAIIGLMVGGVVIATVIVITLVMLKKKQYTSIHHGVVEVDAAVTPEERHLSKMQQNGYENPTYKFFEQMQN

Acetylcholinesterase [5] = target: Acetylcholinesterase (Electrophorus electricus, UniProt O42275); assay: Inhibition of electric eel AChE measured after 2 mins by Ellman's method
Chain of Acetylcholinesterase (Electrophorus electricus, UniProt O42275) (O42275 whole entry): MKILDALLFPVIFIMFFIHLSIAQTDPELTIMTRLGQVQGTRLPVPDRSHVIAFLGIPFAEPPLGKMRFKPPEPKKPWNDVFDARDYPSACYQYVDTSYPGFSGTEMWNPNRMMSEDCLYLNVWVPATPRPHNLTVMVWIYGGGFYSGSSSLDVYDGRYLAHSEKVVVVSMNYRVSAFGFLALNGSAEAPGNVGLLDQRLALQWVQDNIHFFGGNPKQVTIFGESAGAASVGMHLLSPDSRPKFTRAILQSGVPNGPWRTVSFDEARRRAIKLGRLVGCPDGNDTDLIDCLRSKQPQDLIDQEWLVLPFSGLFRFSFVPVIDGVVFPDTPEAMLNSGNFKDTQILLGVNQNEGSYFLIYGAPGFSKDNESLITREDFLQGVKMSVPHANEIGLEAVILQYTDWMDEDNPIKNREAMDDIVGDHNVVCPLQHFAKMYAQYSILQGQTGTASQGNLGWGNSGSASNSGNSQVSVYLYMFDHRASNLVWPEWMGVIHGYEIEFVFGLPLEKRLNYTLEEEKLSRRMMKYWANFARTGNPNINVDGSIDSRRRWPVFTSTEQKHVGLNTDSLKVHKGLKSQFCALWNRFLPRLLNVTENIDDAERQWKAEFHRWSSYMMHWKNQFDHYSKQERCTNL

[6] = Permeability of the compound across blood brain barrier measured after 18 hrs by parallel artificial membrane permeation assay; assay type: ADME; details: PAMPA, read-out: permeability
[7] = Antioxidant activity assessed as trolox equivalent of ORAC radical scavenging activity by ORAC-FL assay; assay type: functional
[8] = Antioxidant activity assessed as DPPH radical scavenging activity measured after 20 mins; assay type: functional
[9] = Antioxidant activity assessed as galvinoxyl radical scavenging activity measured after 20 mins; assay type: functional
[10] = Antioxidant activity assessed as ABTS radical scavenging activity measured after 6 mins; assay type: functional
[11] = Antioxidant activity assessed as DPPH radical scavenging activity measured after 45 mins by Varioskan-flash microplate spectrophotometer reader; assay type: functional
Beta-secretase 1 = Beta-secretase 1 (Homo sapiens, UniProt P56817); assay: Inhibition of human recombinant BACE-1 expressed in baculovirus using Rh-EVNLDAEFK-Quencher as substrate incubated for 60 mins by measuring increase in fluorescence intensity using fluorescence microplate reader
Chain of Beta-secretase 1 (P56817 whole entry): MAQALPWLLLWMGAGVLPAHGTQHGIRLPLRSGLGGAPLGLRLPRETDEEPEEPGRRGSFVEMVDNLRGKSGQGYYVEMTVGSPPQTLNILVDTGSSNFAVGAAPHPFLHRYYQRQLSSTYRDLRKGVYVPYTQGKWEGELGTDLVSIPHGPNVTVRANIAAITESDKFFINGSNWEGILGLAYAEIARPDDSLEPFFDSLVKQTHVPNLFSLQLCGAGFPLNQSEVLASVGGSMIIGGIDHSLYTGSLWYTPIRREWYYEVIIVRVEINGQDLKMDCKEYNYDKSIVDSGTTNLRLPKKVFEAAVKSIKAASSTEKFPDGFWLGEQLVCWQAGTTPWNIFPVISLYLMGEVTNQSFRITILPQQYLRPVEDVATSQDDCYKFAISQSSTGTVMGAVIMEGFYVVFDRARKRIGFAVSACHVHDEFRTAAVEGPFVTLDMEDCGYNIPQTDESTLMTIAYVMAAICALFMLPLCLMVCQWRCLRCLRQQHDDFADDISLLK

[12] = target: T4, Amyloid-beta precursor protein
[13] = target: T5, Amine oxidase [flavin-containing] A (Homo sapiens, UniProt P21397)
T5 sequence (P21397 whole entry): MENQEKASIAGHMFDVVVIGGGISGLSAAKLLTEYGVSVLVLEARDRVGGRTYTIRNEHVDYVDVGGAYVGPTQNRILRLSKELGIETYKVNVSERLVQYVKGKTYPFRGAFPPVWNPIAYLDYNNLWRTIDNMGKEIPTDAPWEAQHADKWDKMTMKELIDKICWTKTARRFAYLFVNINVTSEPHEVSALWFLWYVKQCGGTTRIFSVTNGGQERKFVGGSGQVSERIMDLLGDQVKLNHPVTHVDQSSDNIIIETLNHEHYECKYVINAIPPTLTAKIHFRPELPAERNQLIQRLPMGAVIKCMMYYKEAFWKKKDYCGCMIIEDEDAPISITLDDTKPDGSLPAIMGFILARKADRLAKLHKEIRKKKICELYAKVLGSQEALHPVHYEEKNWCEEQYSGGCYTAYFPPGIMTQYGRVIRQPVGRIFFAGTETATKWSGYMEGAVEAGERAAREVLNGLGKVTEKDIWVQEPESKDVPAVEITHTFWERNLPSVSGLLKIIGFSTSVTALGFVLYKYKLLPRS
Description: Inhibition of human recombinant MAO-A incubated for 15 mins by Amplex red MAO assay

[14] = target: T4, Amyloid-beta precursor protein; assay: Inhibition of HFIP-treated Amyloid beta (1 to 42) (unknown origin) self aggregation at 20 uM incubated for 46 to 48 hrs by fluorescence based assay relative to control; details: time 46-48 hrs
[15] = target: T6, Amine oxidase [flavin-containing] B (Homo sapiens, UniProt P27338); assay: Inhibition of human recombinant MAO-B incubated for 15 mins by Amplex red MAO assay
T6 sequence (P27338 whole entry): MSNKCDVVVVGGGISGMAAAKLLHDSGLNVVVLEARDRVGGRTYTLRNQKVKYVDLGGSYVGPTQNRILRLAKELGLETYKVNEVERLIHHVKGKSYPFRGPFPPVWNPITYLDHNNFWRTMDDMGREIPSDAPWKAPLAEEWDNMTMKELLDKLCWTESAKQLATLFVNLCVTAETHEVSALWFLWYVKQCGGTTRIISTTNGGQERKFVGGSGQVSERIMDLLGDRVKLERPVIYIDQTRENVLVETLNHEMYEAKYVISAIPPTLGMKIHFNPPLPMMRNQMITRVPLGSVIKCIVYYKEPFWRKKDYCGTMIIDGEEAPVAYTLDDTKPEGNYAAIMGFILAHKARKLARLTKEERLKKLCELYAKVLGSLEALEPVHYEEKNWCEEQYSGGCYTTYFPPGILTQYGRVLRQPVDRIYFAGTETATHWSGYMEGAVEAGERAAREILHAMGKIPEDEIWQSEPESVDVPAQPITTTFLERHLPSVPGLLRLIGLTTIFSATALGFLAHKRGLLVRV

[16] = Antioxidant activity assessed as DPPH radical scavenging activity measured after 15 mins; assay type: functional
Cholinesterase [17] = target: T1, Cholinesterase; assay: Inhibition of BChE (unknown origin) using BTCI as substrate incubated for 30 mins by Ellman's method
[18] = target: T4, Amyloid-beta precursor protein; assay: Inhibition of Amyloid beta (1 to 42) (unknown origin) self aggregation at 25 uM by ThT-based fluorescence assay relative to control
Acetylcholinesterase [19] = target: T2, Acetylcholinesterase; assay: Inhibition of AChE (unknown origin) using ATCI as substrate incubated for 30 mins by Ellman's method
Liver = assay: tissue or blood; details: Canis lupus familiaris
Description: Antioxidant activity assessed as Fe2+/ascorbate-induced MDA level in liver mitochondria (unknown origin) preincubated for 30 mins followed by addition of Fe2+/ascorbate measured after 30 mins

[20] = time 30.0 min
[21] = Antioxidant activity assessed as ABTS radical scavenging activity; assay type: functional
Acetylcholinesterase [22] = target: T2, Acetylcholinesterase; assay: Binding affinity to AChE (unknown origin) assessed as inhibition constant
Carbonic anhydrase 1 = Carbonic anhydrase 1 (Homo sapiens, UniProt P00915); assay: Binding affinity to carbonic anhydrase 1 (unknown origin) assessed as inhibition constant
Chain of Carbonic anhydrase 1 (P00915 whole entry): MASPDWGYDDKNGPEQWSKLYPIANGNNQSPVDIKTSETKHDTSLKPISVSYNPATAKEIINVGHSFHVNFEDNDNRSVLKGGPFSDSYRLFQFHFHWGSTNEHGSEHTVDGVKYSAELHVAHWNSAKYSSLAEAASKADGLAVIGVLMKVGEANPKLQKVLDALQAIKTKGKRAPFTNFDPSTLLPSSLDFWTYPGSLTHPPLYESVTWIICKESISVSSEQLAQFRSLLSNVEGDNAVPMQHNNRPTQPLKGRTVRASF

Acetylcholinesterase [23] = target: T2, Acetylcholinesterase; assay: Binding affinity to AChE (unknown origin) assessed as inhibition constant using AChI as substrate incubated for 15 mins by Ellman's spectrophotometric method
[24] = target: T6, Amine oxidase [flavin-containing] B
Description: Inhibition of human recombinant MAO-B incubated for 30 mins by fluorescence based assay

Carbonic anhydrase 2 = Carbonic anhydrase 2 (Homo sapiens, UniProt P00918)
Description: Binding affinity to carbonic anhydrase 2 (unknown origin) assessed as inhibition constant

T1 sequence (P06276 whole entry): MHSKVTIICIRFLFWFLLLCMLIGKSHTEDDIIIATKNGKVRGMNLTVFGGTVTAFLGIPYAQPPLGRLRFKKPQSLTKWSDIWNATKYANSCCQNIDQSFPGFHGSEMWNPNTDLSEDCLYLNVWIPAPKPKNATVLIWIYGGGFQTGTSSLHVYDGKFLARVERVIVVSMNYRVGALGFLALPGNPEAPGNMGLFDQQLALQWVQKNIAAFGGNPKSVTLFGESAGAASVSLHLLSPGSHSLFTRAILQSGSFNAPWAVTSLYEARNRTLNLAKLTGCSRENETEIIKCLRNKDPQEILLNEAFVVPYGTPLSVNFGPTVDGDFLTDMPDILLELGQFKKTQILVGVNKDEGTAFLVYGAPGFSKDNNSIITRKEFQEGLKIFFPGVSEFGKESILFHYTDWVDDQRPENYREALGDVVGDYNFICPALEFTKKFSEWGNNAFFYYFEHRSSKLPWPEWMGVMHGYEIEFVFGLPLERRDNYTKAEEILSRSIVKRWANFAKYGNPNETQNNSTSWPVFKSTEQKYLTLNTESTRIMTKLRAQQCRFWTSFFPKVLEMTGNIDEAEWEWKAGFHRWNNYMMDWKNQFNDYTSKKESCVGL

SMILES: Oc1ccc(/C=C/c2ccc(C(F)(F)F)cc2)cc1Cl
- Activity (C2C12): 150%

SMILES: COc1cc(/C=C/c2cc(=O)oc3c2ccc2oc(-c4ccccc4)cc23)cc(OC)c1
- IC50 (Cholinesterase [1]): 3500 nM
- IC50 (Acetylcholinesterase [2]): 1800 nM
- IC50 [3]: 13900 nM

SMILES: CCN(CC)C[C@@H](O)COc1ccc(/C=C/c2cc(OC)cc(OC)c2)cc1
- Activity (PC-12): 74.9%
- inhibition [4]: 40.2%
- IC50 (Acetylcholinesterase [5]): 24000 nM
- Papp at 18 h [6]: 8.12 ×10⁻⁶ cm/s

SMILES: COc1cc(/C=C/c2cc(=O)oc3c2ccc2oc(-c4cccc(F)c4)cc23)cc(OC)c1
- IC50 (Cholinesterase [1]): 3500 nM
- IC50 (Acetylcholinesterase [2]): 1800 nM
- IC50 [3]: 13900 nM

SMILES: COc1ccc(-c2cc3c(ccc4c(/C=C/c5cc(OC)cc(OC)c5)cc(=O)oc43)o2)cc1
- IC50 (Cholinesterase [1]): 3500 nM
- IC50 (Acetylcholinesterase [2]): 1800 nM
- IC50 [3]: 13900 nM

SMILES: Cc1ncc(/C=C/c2ccc(CN3CCOCC3)c(O)c2)c(CO)c1O
- Activity [7]: 1.52 µM

SMILES: Oc1ccc(/N=C/c2ccc(O)c(O)c2O)cc1
- RC50 [8]: 8.77 µmol/mL
- RC50 [9]: 15.4 µmol/mL
- RC50 [10]: 1.98 µmol/mL

SMILES: COc1cc(/C=C/c2cc(=O)oc3c2ccc2oc(-c4cc(OC)cc(OC)c4)cc23)cc(OC)c1
- IC50 (Cholinesterase [1]): 6300 nM
- IC50 (Acetylcholinesterase [2]): 2800 nM
- Activity [11]: 6.8 µM
- IC50 [3]: 13900 nM
- IC50 (Beta-secretase 1): 15300 nM

- IC50 [12]: 19500 nM
- IC50 [13]: 2600 nM
- inhibition [14]: 58.9%
- IC50 [15]: 1140 nM
SMILES: Clc1ccc(/C=N/c2ccc3cn[nH]c3c2)cc1Cl

SMILES: CCn1c2ccccc2c2cc(/C=C/c3ccc(NC(=S)NCCN4CCCC4)cc3)ccc21
- Activity [16]: 86.1 µM
- IC50 (Cholinesterase [17]): 1290 nM
- inhibition [18]: 51.3%
- IC50 (Acetylcholinesterase [19]): 2640 nM

SMILES: COc1cc(/C=C/c2cc(=O)oc3c2ccc2oc(-c4ccc(F)cc4)cc23)cc(OC)c1
- IC50 (Cholinesterase [1]): 3500 nM
- IC50 (Acetylcholinesterase [2]): 1800 nM
- IC50 [3]: 13900 nM

SMILES: COc1cc(/C=C/c2cc(=O)oc3c2ccc2oc(-c4ccc(Cl)cc4)cc23)cc(OC)c1
- IC50 (Cholinesterase [1]): 3500 nM
- IC50 (Acetylcholinesterase [2]): 1800 nM
- IC50 [3]: 13900 nM

- EC50 (Liver): 2430 nM
SMILES: CCc1nc(/C=C/c2ccc(O)c(O)c2)ccc1O

SMILES: NS(=O)(=O)c1ccc(NCc2cccc(Br)c2O)cc1
- Activity [20]: 4.2%
- Activity [21]: 74.5%
- Ki (Acetylcholinesterase [22]): 77.7 nM

SMILES: COc1cc(/C=C/c2cc(=O)oc3c2ccc2oc(-c4cccc(Cl)c4)cc23)cc(OC)c1
- IC50 (Cholinesterase [1]): 3500 nM
- IC50 (Acetylcholinesterase [2]): 1800 nM
- IC50 [3]: 13900 nM

SMILES: NS(=O)(=O)c1ccc(/N=C/c2cc(Br)cc(Br)c2O)cc1
- Ki (Carbonic anhydrase 1): 32.1 nM
- Ki (Acetylcholinesterase [23]): 2540 nM
- Ki (Acetylcholinesterase [22]): 21 nM

- IC50 [24]: 1500 nM
SMILES: Cc1ncc(/C=C/c2ccc(CN3CCCCC3)c(O)c2)c2c1OC(C)(C)OC2
- Activity [7]: 1.52 µM

SMILES: COc1cc(/C=C/c2cc(=O)oc3c2ccc2oc(-c4ccc(C)cc4)cc23)cc(OC)c1
- IC50 (Cholinesterase [1]): 3500 nM
- IC50 (Acetylcholinesterase [2]): 1800 nM
- IC50 [3]: 13900 nM

SMILES: NS(=O)(=O)c1ccc(/N=C/c2cc(Br)cc(Cl)c2O)cc1
- Ki (Carbonic anhydrase 1): 32.1 nM
- Ki (Carbonic anhydrase 2): 16 nM
- Ki (Acetylcholinesterase [22]): 21 nM

SMILES: NS(=O)(=O)c1ccc(NCc2cccc(Cl)c2O)cc1
- Ki (Acetylcholinesterase [22]): 21 nM

- IC50 [24]: 2110 nM
SMILES: Cc1ncc(/C=C/c2ccc(CN3CCCCC3)c(O)c2)c(CO)c1O
- Activity [7]: 1.52 µM

SMILES: Oc1ccc(/C=C/c2cc(O)cc(O)c2)cc1 [RESVERATROL]
- Activity (PC-12): 81.23%
- Activity (C2C12): 110%
- RC50 [8]: 26.4 µmol/mL
- RC50 [9]: 72.7 µmol/mL
- RC50 [10]: 1.43 µmol/mL
- EC50 (Liver): 7440 nM
- IC50 [15]: 31800 nM
